Biological target: A-kinase anchor protein 7 isoform gamma (Human, UniProt Q9P0M2)
Assay: Binding Assay
Description: Stable and optimal assay conditions were determined by cross-titrating GST-AKAP18δ and biotinylated PLB using 10 μg/ml glutathione acceptor beads and 10 μg/ml streptavidin donor beads in an AlphaScreen assay. The excitation wavelength was 680 nm, with the emission wavelength being 520-560 nm. Signal intensity in each well was registered and the optimal concentration to use was chosen to be the concentration prior to the peak of the signal.

Chain of A-kinase anchor protein 7 isoform gamma (Q9P0M2 whole entry, canonical isoform): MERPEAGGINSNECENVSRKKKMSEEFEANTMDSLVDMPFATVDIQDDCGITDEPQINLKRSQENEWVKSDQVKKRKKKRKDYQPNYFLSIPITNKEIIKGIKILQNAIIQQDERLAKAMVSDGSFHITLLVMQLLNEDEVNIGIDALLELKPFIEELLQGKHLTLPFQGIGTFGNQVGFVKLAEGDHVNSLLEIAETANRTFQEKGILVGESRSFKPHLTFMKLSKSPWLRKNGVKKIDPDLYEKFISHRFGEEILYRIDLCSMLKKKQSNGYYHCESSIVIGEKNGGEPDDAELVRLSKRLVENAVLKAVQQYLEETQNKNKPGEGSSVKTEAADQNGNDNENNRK

EC50: 5.2 µM
Structure (SMILES): Cc1ccc(NC(=O)Nc2ccc(CN(Cc3ccc(NC(=O)Nc4ccc(C)cc4)cc3)Cc3ccc(NC(=O)Nc4ccc(C)cc4)cc3)cc2)cc1 [US9556111, Table 1.20]
